# Where two headings read alike, the source gives them in different places.
# Key:
# hER β [1] = conditions: Table 2; cited from Kuiper et al. (1996), Endocrinology 138: 863-870; cited from earlier work
# hER β [2] = experiment: Relative binding affinity to hER β (cited from Kuiper et al.); parameters: species or system human; conditions: Table 2; quotient of the cited RBA values
# Description: In this case, it is assumed that ERβ predominates in the rat prostate over ERα, and ERα predominates in the rat uterus over ERβ.
# [3] = molecular target: T1, estrogen receptor from the rat uterus (Rattus norvegicus, UniProt P06211); experiment: Estrogen receptor binding, rat uterus cytosol, competition with 3H-estradiol
# T1 construct: The preparation of rat uterus cytosol as well as the receptor test with the estrogen-receptor-containing cytosol; from tissue; host or cells: rat uterus cytosol
# T1 sequence (P06211 1-600): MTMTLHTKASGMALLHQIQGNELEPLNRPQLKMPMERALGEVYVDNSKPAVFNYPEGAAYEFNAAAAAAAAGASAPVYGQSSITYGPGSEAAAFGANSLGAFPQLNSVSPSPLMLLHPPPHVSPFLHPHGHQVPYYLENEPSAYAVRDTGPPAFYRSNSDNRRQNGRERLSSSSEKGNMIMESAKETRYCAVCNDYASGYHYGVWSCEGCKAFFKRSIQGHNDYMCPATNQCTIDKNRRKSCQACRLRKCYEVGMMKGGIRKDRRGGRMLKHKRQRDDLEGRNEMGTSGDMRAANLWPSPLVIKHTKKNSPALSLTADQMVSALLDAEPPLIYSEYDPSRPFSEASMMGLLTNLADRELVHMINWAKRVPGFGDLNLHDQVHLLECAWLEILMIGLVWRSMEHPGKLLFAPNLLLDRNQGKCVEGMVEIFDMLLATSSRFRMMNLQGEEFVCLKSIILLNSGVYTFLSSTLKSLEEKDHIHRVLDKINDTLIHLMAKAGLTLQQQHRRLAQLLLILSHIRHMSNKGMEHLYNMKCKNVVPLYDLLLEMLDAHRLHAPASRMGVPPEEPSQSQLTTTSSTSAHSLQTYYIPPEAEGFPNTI
# [4] = tested on: estrogen receptor from the rat uterus; experiment: as above
# [5] = tested on: estrogen receptor from the rat prostate; experiment: Estrogen receptor binding, rat prostate cytosol, competition with 3H-estradiol; conditions: for Rat Prostate ER (RBA): Table 1, 3H-estradiol as ligand
# [6] = tested on: MCF-7 breast cancer cells; experiment: Cell proliferation assay, estradiol-stimulated MCF-7, crystal violet; type: cell-based; conditions: Homo sapiens, MCF7, 168 h; concentration 10^-5 M; 7 days; FIG. 1
# [7] = relative binding affinity, estradiol = 100
compound,measurement,setting,value
C[C@]12CC[C@H](O)CC1=CCC1C2CC[C@@]2(C)C1CC[C@@H]2O (stereo partly shown) [5-Andros-ten-diol],hER β RBA,hER β [1],17
same,ERβ/ERα,hER β [2],3
same,Rat uterus ER(RBA),[3],0.1
same,Uterus-ER/Prostata-ER,"[4]; Table 2, ratio of rat ER RBA values as headed",50
same,Rat prost. ER(RBA),[5],5
"CCCCCC[C@H]1C[C@@]2(C)C(C[C@H]3OC(=O)C[C@]32O)C2CCc3cc(O)ccc3C21 (stereo partly drawn) [Compound 1, 3,17β-Dihydroxy-11β-hexyl-19-nor-17α-pregna-1,3,5(10)-triene-21,16α-lactone]",inhibition at 10 µM,[6],100%
same,Rat uterus ER(RBA),"[3]; Table 1, relative binding affinity, estradiol = 100, 3H-estradiol as ligand",26.2
same,Uterus-ER/Prostate-ER,"[4]; Table 1, ratio of RBA rat uterus ER to rat prostate ER",22
same,"Binding affinity, rat uterus ER compared with rat prostate ER (in words)",[4]; see Table 1,higher binding affinity to the estrogen receptor from the rat uterus than to the estrogen receptor from the rat prostate
same,Rat Prostate ER (RBA),[5]; [7],1.2
C[C@]12CCC3c4ccc(O)cc4CCC3C1CC[C@@H]2O (stereo partly shown) [Estradiol],Rat Prostate ER (RBA),[5]; [7],100
same,Rat prost. ER(RBA),"[5]; Table 2, relative binding affinity, estradiol = 100",100
C[C@]12CC[C@@H]3c4ccc(O)cc4CC[C@H]3[C@@H]1C[C@@H](O)[C@@H]2O [Estriol],hER β RBA,hER β [1],21
